Results from patent US20200256853A1, “Models of Reconstructed Sensitive Skin” (Laboratoires Expanscience, priority 2017, published 2020).

Legend:
Format in all cases: cell-based
[1] = system: reconstructed Sensitive Skin model (reconstructed human epidermises treated with 0.6% lactic acid); assay: Intracellular measurements of inflammatory mediators (ELISA) in reconstructed Sensitive Skin model, Example 3; conditions: for IL1RA/IL1-alpha ratio Change / Intracellular IL1-alpha Change / Intracellular IL1RA Change / Intracellular IL8 Change: change vs. lactic acid
Experimental: Intracellular amounts of IL-1α, IL8 and IL1-RA were determined by ELISA (R&D Systems) in ground epidermis (n=2).
(§1) Reconstructed human epidermises were obtained from the keratinocytes of a […] donor using the method derived from Poumay et al. (Arch Dermatol Res 2004; 296:203-11). After 2 days of immersion culture, the reconstructed human epidermises were cultured at the air/liquid interface for 10 days.
(§2) Epidermises at differentiation day 10 was treated or not (control) systemically with the test compounds and incubated for 24 hours.
(§3) The amount of inflammatory mediators IL-1alpha (IL1α), IL-8 and PGE2 present in skin culture supernatants was evaluated using ELISA kits (R&D Systems). • Evaluations of intracellular inflammatory markers IL-1α, IL8 and IL1-RA (n=2)
(§4) Same protocol as described in Example 2. • Determination of Poly-Unsaturated Fatty Acids (PUFAs) (n=2)

[2] = system: reconstructed Sensitive Skin model (reconstructed human epidermises treated with 0.6% lactic acid); assay: Determinations of released inflammatory mediators (ELISA) in reconstructed Sensitive Skin model, Example 3; conditions: for Released IL1-alpha Change / Released IL8 Change / Released PGE2 Change: change vs. lactic acid
Experimental: as §1, §2, §3

[3] = system: reconstructed Sensitive Skin model (reconstructed human epidermises treated with 0.6% lactic acid); assay: Determination of PUFAs (GC/MS) in reconstructed Sensitive Skin model, Example 3; conditions: for C18:1 Change / C18:2 LA Change / C20:4 AA Change: change vs. lactic acid
Experimental: Screening of polyunsaturated fatty acids (PUFAs) expressed by the epidermis was carried out by GC/MS analysis of samples obtained after grinding the epidermises (n=2).
The amounts were normalized by C16:0 (palmitic acid), which is representative of the overall lipid content of the epidermis.
as §1, §2, §4
Same protocol as described in Example 2.

## CC1(C)[C@@H](O[C@H]2O[C@H](C(=O)[O-])[C@@H](O)[C@H](O)[C@H]2O[C@@H]2O[C@H](C(=O)[O-])[C@@H](O)[C@H](O)[C@H]2O)CC[C@]2(C)[C@H]3C(=O)C=C4[C@@H]5C[C@@](C)(C(=O)O)CC[C@]5(C)CC[C@@]4(C)[C@]3(C)CC[C@@H]12.[K+].[K+] [GLY, Dipotassium glycyrrhizinate]
[1]; GLY 0.005% + lactic acid 0.6%
  IL1RA/IL1-alpha ratio Mean ± SD: 25.6 ± 1.29
  Intracellular IL1-alpha Mean ± SD: 987.5 ± 101.1 pg/mg protein
  Intracellular IL1RA Mean ± SD: 25195 ± 1305 pg/mg protein
  Intracellular IL8 Mean ± SD: 78.39 ± 6.350 pg/mg protein
  IL1RA/IL1-alpha ratio Change: +3%
  Intracellular IL1-alpha Change: −5%
  Intracellular IL1RA Change: −2%
  Intracellular IL8 Change: −1%
[1]; GLY 0.01% + lactic acid 0.6%
  IL1RA/IL1-alpha ratio Mean ± SD: 19.1 ± 0.212
  Intracellular IL1-alpha Mean ± SD: 587.0 ± 63.64 pg/mg protein
  Intracellular IL1RA Mean ± SD: 11244 ± 1341 pg/mg protein
  Intracellular IL8 Mean ± SD: 50.17 ± 3.366 pg/mg protein
  IL1RA/IL1-alpha ratio Change: −23%
  Intracellular IL1-alpha Change: −44%
  Intracellular IL1RA Change: −56%
  Intracellular IL8 Change: −37%
[1]; concentration not given
  IL1RA/IL1α ratio (in words): maintained the IL1RA/IL1α ratio
  Increase in intracellular IL1RA level induced by lactic acid treatment (in words): significantly inhibited
  Increase in intracellular IL1α level induced by lactic acid treatment (in words): significantly inhibited
  Increase in intracellular IL8 level induced by lactic acid treatment (in words): significantly inhibited
[2]; GLY 0.005% + lactic acid 0.6%
  Released IL1-alpha Mean ± Standard deviation: 28 ± 10 pg/mL
  Released IL8 Mean ± Standard deviation: 211 ± 41 pg/mL
  Released PGE2 Mean ± Standard deviation: 94 ± 36 pg/mL
  Released IL1-alpha Change: −59%
  Released IL8 Change: +1%
  Released PGE2 Change: −52%
[2]; GLY 0.01% + lactic acid 0.6%
  Released IL1-alpha Mean ± Standard deviation: 35 ± 16 pg/mL
  Released IL8 Mean ± Standard deviation: 244 ± 138 pg/mL
  Released PGE2 Mean ± Standard deviation: 137 ± 83 pg/mL
  Released IL1-alpha Change: −49%
  Released IL8 Change: +17%
  Released PGE2 Change: −31%
[2]; concentration not given
  Release of IL1α induced by lactic acid (in words): significantly inhibited
  Release of PGE2 induced by lactic acid (in words): significantly inhibited
[3]; GLY 0.005% + lactic acid 0.6%
  C18:1 Mean ± SD, amount normalized to C16:0: 0.2785
  C18:2 LA Mean ± SD, amount normalized to C16:0: 0.1600
  C20:4 AA Mean ± SD, amount normalized to C16:0: 0.0435
  C18:1 Change: −28%
  C18:2 LA Change: −25%
  C20:4 AA Change: −24%
[3]; GLY 0.01% + lactic acid 0.6%
  C18:1 Mean ± SD, amount normalized to C16:0: 0.2680
  C18:2 LA Mean ± SD, amount normalized to C16:0: 0.1440
  C20:4 AA Mean ± SD, amount normalized to C16:0: 0.0395
  C18:1 Change: −31%
  C18:2 LA Change: −32%
  C20:4 AA Change: −31%
